In patent US20060234329A1, “Method for determining the antiradical defense potential and use thereof, in particular in veterinary and human preventive therapeutics” (priority 2003, published 2006):

What was measured:
control whole blood = assay: prior KRL test without hydrolysis: lysis by free radicals; assay type: cell-based
Description: This known method has been standardised using whole human or animal blood, which is diluted, instead of the above-stated erythrocytes isolated from whole blood. The standardised method has been successfully marketed under the name “KRL Test” (kit radicaux libres [=free radical kit]) in particular for determining (i) the antiradical defence capacity of a human, animal or plant cellular tissue, or (ii) the possible antiradical properties of a physical, chemical or biological agent. More specifically, the KRL test is performed by 1) bringing (a) previously diluted control whole blood into contact in an appropriate buffer medium with (b) an agent to be tested (in particular a cellular material, a substance or a composition) and (c) a free radical generator, 2) inducing release of the free radicals, 3) monitoring the lysis kinetics of the erythrocytes from the control whole blood by measuring the absorbance of the reaction medium, then 4) comparing said latter value with that of control whole blood determined under the same conditions without the agent to be tested.
(§1) Sulfated ferulic acid (I) consequently comprises a double antiradical reserve which is usable by hydrolysis. The antiradical activity of these products was determined according to the prior KRL test without hydrolysis, on the one hand, and according to the invention after hydrolysis, on the other hand. The results obtained are set out in Table I which illustrates the value of hydrolysis according to the invention. [drawing 5]

[1] = test system: whole blood, erythrocytes or blood plasma; assay: method of the invention: hydrolysis, then lysis by free radicals; assay type: cell-based; settings: with hydrolysis according to the invention
Description: as §1
The method of the invention has been standardised for use with whole blood, erythrocytes or blood plasma as the second cellular material. […] The T½ value and the other parameters stated above are then determined. […]
The sample to be tested (50 μl), which contains or is associated with whole blood, with erythrocytes or, respectively, with plasma and if necessary is diluted, is introduced into the dilution solution (220 μl) placed in the wells of a microplate. Hydrolysis is performed, the free radical generator is introduced, release of the free radicals is initiated and the T½ value and said other parameters are determined according to the methods stated above.
In practice, it is recommended to use the following quantities of enzymes, where U denotes the international unit of the enzyme in question: • β-glucosidase at a final concentration of 11.11 U/ml (3 U/well), • sulfatase at a final concentration of 3 U/ml (0.8 U/well), and/or • β-glucuronidase at a final concentration of 2222.22 U/ml (600 U/well). Other advantages and characteristics of the invention will be better understood on reading the Examples and tests stated hereafter. […]

## O=C(O)/C=C/c1ccc(O)c(O)c1 [trans-caffeic acid (III), trans-caffeic acid]
Control whole blood
  Antiradical activity relative to ferulic acid, without hydrolysis: 2.06
[1]
  Antiradical activity relative to ferulic acid, with hydrolysis: 2.06

## COc1cc(/C=C/C(=O)O)ccc1O [trans-ferulic acid (II), trans-ferulic acid]
Control whole blood
  Antiradical activity relative to ferulic acid, without hydrolysis: 1.00
[1]
  Antiradical activity relative to ferulic acid, with hydrolysis: 2.05

## COc1cc(/C=C/C(=O)O)ccc1OS(=O)(=O)O [sulfated ferulic acid (I), sulfated ferulic acid]
Control whole blood
  Antiradical activity relative to ferulic acid, without hydrolysis: 0.01
[1]
  Antiradical activity relative to ferulic acid, with hydrolysis: 2.06
